In ChEMBL document CHEMBL1201862, “PubChem BioAssay data set” (2004):
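Protocol summary: plate cells (96-well), add compound at 5 concentrations, incubate 48 h, interpolate endpoints linearly. GI50 marks 50% less growth.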 Active and inactive are the calls of the source. Cut-off read from the data, not from the text of the source: active = GI50 up to about 1.1 µM and inactive = higher.

Experiments:
Experiment in all cases: growth of human tumour cells (NCI), 48 h
[1] = test system: M14
[2] = test system: KM12
[3] = test system: MCF7
[4] = test system: SNB-19
[5] = test system: RPMI-8226
[6] = test system: OVCAR-5
[7] = test system: T47D
[8] = test system: SF-295
[9] = test system: EKVX
[10] = test system: PC-3
[11] = test system: MDA-MB-231
[12] = test system: SK-OV-3
[13] = test system: SF-268
[14] = test system: OVCAR-8
[15] = test system: RXF 393
[16] = test system: UO-31
[17] = test system: HOP-62
[18] = test system: SK-MEL-5
[19] = test system: HOP-92
[20] = test system: 786-0
[21] = test system: HCC 2998
[22] = test system: BT-549
[23] = test system: MOLT-4
[24] = test system: NCI-H522
[25] = test system: NCI-H460
[26] = test system: K562
[27] = test system: COLO 205
[28] = test system: DU-145
[29] = test system: NCI/ADR-RES
[30] = test system: SW-620
[31] = test system: SK-MEL-2
[32] = test system: TK-10
[33] = test system: UACC-257
[34] = test system: CCRF-CEM
[35] = test system: A549
[36] = test system: U-251
[37] = test system: IGROV-1
[38] = test system: SF-539
[39] = test system: CAKI-1
[40] = test system: ACHN
[41] = test system: MDA-MB-435
[42] = test system: Malme-3M
[43] = test system: SNB-75
[44] = test system: SR
[45] = test system: HT-29
[46] = test system: HL-60
[47] = test system: OVCAR-4
[48] = test system: HCT-116
[49] = test system: UACC-62
[50] = test system: SN12C
[51] = test system: NCI-H226
[52] = test system: HCT-15
[53] = test system: Hs-578T
[54] = test system: SK-MEL-28
[55] = test system: LOX IMVI
[56] = test system: OVCAR-3
[57] = test system: A498
[58] = test system: NCI-H23
[59] = test system: MDA-N

N#C/C(=C\c1ccccc1)c1nc(-c2cc3ccccc3oc2=O)cs1
GI50 [1]: > 100 µM (inactive)
GI50 [2]: 75.3 µM (inactive)
GI50 [3]: > 100 µM (inactive)
GI50 [4]: 74.3 µM (inactive)
GI50 [5]: > 100 µM (inactive)
GI50 [6]: > 100 µM (inactive)
GI50 [7]: > 100 µM (inactive)
GI50 [8]: > 100 µM (inactive)
GI50 [9]: 71.3 µM (inactive)
GI50 [10]: > 100 µM (inactive)
GI50 [11]: 71.3 µM (inactive)
GI50 [12]: 72.8 µM (inactive)
GI50 [13]: 60 µM (inactive)
GI50 [14]: > 100 µM (inactive)
GI50 [15]: > 100 µM (inactive)
GI50 [16]: 93.1 µM (inactive)
GI50 [17]: 30.9 µM (inactive)
GI50 [18]: > 100 µM (inactive)
GI50 [19]: 32.1 µM (inactive)
GI50 [20]: 53.5 µM (inactive)
GI50 [21]: > 100 µM (inactive)
GI50 [22]: 27.3 µM (inactive)
GI50 [23]: > 100 µM (inactive)
GI50 [24]: > 100 µM (inactive)
GI50 [25]: > 100 µM (inactive)
GI50 [26]: > 100 µM (inactive)
GI50 [27]: > 100 µM (inactive)
GI50 [28]: > 100 µM (inactive)
GI50 [29]: > 100 µM (inactive)
GI50 [30]: > 100 µM (inactive)
GI50 [31]: > 100 µM (inactive)
GI50 [32]: 45.2 µM (inactive)
GI50 [33]: > 100 µM (inactive)
GI50 [34]: > 100 µM (inactive)
GI50 [35]: > 100 µM (inactive)
GI50 [36]: 41.6 µM (inactive)
GI50 [37]: 48.5 µM (inactive)
GI50 [38]: 58.5 µM (inactive)
GI50 [39]: > 100 µM (inactive)
GI50 [40]: 38.6 µM (inactive)
GI50 [41]: > 100 µM (inactive)
GI50 [42]: > 100 µM (inactive)
GI50 [43]: 39.3 µM (inactive)
GI50 [44]: > 100 µM (inactive)
GI50 [45]: > 100 µM (inactive)
GI50 [46]: > 100 µM (inactive)
GI50 [47]: 41.5 µM (inactive)
GI50 [48]: > 100 µM (inactive)
GI50 [49]: 43.1 µM (inactive)
GI50 [50]: > 100 µM (inactive)
GI50 [51]: > 100 µM (inactive)
GI50 [52]: > 100 µM
GI50 [53]: 48 µM (inactive)
GI50 [54]: > 100 µM (inactive)
GI50 [55]: > 100 µM (inactive)

CCOC(=O)NN(C(=O)OCC)C(=C(C1=CCCCC1)N1CCOCC1)N(NC(=O)OCC)C(=O)OCC
GI50 [1]: > 100 µM (inactive)
GI50 [2]: > 100 µM (inactive)
GI50 [3]: > 100 µM (inactive)
GI50 [4]: > 100 µM (inactive)
GI50 [5]: > 100 µM (inactive)
GI50 [6]: > 100 µM (inactive)
GI50 [7]: > 100 µM (inactive)
GI50 [8]: > 100 µM (inactive)
GI50 [9]: > 100 µM (inactive)
GI50 [10]: > 100 µM (inactive)
GI50 [56]: > 100 µM (inactive)
GI50 [11]: > 100 µM (inactive)
GI50 [12]: > 100 µM (inactive)
GI50 [13]: > 100 µM (inactive)
GI50 [14]: > 100 µM (inactive)
GI50 [15]: > 100 µM (inactive)
GI50 [16]: > 100 µM (inactive)
GI50 [17]: > 100 µM (inactive)
GI50 [19]: > 100 µM (inactive)
GI50 [20]: > 100 µM (inactive)
GI50 [21]: > 100 µM (inactive)
GI50 [22]: > 100 µM (inactive)
GI50 [23]: > 100 µM (inactive)
GI50 [25]: > 100 µM (inactive)
GI50 [26]: > 100 µM (inactive)
GI50 [27]: > 100 µM (inactive)
GI50 [57]: > 100 µM (inactive)
GI50 [28]: > 100 µM (inactive)
GI50 [29]: > 100 µM (inactive)
GI50 [30]: > 100 µM (inactive)
GI50 [32]: > 100 µM (inactive)
GI50 [58]: > 100 µM (inactive)
GI50 [35]: > 100 µM (inactive)
GI50 [36]: > 100 µM (inactive)
GI50 [37]: > 100 µM (inactive)
GI50 [59]: > 100 µM (inactive)
GI50 [39]: > 100 µM (inactive)
GI50 [40]: > 100 µM (inactive)
GI50 [41]: > 100 µM (inactive)
GI50 [42]: > 100 µM (inactive)
GI50 [43]: > 100 µM (inactive)
GI50 [44]: > 100 µM (inactive)
GI50 [45]: > 100 µM (inactive)
GI50 [46]: > 100 µM (inactive)
GI50 [49]: > 100 µM (inactive)
GI50 [50]: > 100 µM (inactive)
GI50 [51]: > 100 µM (inactive)
GI50 [52]: > 100 µM
GI50 [54]: > 100 µM (inactive)
GI50 [55]: > 100 µM (inactive)
